Measurements as given in patent publication US20240116912A1, “COMPOUNDS AND METHODS FOR MODULATING FXR” (Terns Pharmaceuticals, Inc., priority 2020, published 2024).
Several values for one entry are separate records, joined by “and”; a condition that tells them apart may be missing. Identical values can stand only once.

Assays:
[1] = biological target: ligand binding domain (LBD) of recombinant human FXR (Homo sapiens (Human), UniProt Q96RI1); experiment: FXR cell free coactivator (SRC-1) recruitment assay, TR-FRET; settings: FXR LBD (amino acids 244-476) with labeled SRC-1 domain, 25° C. for 60 minutes, activity relative to CDCA maximum; read-out: EC50 FXR- Biochemical TR-FRET/μM
Sequence of ligand binding domain (LBD) of recombinant human FXR (Q96RI1 254-486): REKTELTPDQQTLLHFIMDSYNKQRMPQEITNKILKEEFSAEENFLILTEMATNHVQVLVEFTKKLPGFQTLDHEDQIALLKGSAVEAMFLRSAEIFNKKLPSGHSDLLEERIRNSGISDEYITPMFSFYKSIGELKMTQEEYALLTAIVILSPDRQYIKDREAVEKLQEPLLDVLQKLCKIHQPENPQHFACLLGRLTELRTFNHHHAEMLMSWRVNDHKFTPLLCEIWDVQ
Sequence of ligand binding domain (LBD) of recombinant human FXR (Q15788 whole entry partner, the tested form may be a part): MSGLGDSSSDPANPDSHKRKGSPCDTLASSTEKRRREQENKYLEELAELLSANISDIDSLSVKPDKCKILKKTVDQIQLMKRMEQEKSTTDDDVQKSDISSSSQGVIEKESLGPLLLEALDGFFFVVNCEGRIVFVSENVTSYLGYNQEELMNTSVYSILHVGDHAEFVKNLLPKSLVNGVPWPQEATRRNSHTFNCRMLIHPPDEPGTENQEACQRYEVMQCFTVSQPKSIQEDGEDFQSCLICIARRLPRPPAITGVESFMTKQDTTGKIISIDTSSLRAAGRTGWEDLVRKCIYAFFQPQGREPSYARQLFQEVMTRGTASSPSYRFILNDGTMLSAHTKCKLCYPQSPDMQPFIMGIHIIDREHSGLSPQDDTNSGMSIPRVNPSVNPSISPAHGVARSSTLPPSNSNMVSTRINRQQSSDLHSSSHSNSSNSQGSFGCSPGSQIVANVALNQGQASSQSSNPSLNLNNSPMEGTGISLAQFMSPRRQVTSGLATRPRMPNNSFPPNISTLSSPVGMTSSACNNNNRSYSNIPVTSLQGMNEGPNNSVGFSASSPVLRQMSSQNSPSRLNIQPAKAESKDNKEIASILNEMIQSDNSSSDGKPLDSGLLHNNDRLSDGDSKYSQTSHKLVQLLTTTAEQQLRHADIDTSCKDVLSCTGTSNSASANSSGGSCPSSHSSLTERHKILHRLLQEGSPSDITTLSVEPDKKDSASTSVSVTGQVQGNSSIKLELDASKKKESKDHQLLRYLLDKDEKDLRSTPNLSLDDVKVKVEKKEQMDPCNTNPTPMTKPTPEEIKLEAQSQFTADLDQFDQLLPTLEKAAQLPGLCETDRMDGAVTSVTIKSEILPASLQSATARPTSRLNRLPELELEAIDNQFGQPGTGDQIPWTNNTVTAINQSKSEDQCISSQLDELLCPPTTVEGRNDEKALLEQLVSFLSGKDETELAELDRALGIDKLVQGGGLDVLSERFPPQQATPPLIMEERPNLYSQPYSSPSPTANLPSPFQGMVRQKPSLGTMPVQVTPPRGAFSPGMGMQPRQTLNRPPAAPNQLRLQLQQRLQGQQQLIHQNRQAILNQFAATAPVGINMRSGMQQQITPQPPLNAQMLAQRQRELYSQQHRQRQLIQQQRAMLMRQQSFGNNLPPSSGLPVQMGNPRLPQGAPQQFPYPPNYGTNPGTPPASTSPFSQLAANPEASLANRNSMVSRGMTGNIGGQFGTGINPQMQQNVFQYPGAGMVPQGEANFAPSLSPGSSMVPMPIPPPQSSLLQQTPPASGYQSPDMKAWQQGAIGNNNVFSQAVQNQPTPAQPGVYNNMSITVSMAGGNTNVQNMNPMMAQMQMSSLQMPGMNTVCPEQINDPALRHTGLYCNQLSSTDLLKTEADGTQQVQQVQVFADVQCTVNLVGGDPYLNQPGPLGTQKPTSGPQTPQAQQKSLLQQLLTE
Experimental: A cell free coactivator recruitment assay was developed for FXR, to measure the functional potency of novel FXR compounds. In this assay, novel FXR compounds were bound to the ligand binding domain (LBD) of recombinant human FXR. The ability of this liganded homodimeric complex to recruit the co-activator protein steroid receptor coactivator 1 (SRC-1) was measured using Time-Resolved Fluorescence Resonance Energy Transfer (TR-FRET).
The LBD of human FXR (amino acids 244-476) was cloned into an expression vector for protein expression in SF9 insect cells. Purified FXR LBD was incubated in TR-FRET coregulator buffer G (Eurofins) with test compounds (0-10 micromolar) and a labeled nuclear receptor interaction domain of SRC-1 at 25° C. for 60 minutes (final DMSO vehicle concentration was 1.2%). Assays were analyzed using an Envision TR-FRET reader (PerkinElmer Life and Analytical Sciences). Compound activity at each concentration was defined as a percentage of the maximal activity of the natural FXR ligand agonist chenodeoxycholic acid (CDCA) generating a dose response curve.

[2] = biological target: full length human FXR protein (Homo sapiens (Human), UniProt Q96RI1); experiment: FXR cellular assay (FXR-SRCP β-gal enzyme fragment complementation in CHO-K1 cells, chemiluminescence); assay type: cell-based; settings: CHO-K1 cells with SRCP-EA and ProLink-labeled FXR, 0-10 micromolar compound, 37° C. for 6h, read-out: EC50 FXR-cell Luminescence/
Sequence of full length human FXR protein (Q96RI1 whole entry, the tested form may be a part): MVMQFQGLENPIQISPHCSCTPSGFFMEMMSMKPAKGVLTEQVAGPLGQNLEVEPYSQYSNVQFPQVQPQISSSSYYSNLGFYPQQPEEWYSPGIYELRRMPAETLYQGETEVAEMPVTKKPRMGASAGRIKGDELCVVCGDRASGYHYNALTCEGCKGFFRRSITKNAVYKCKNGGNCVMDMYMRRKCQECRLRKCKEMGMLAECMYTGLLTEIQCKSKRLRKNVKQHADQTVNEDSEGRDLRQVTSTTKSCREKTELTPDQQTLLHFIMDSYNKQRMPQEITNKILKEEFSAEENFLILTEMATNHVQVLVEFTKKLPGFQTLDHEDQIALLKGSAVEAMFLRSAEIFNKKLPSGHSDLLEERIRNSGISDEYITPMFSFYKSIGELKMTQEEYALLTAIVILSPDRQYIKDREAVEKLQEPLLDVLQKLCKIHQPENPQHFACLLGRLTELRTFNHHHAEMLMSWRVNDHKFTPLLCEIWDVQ
Source text: A cell based FXR assay was used to detect protein-protein interactions between an activated (ligand-bound), full length human FXR protein and a nuclear fusion protein containing a Steroid Receptor Coactivator Peptide (SCRP) domain. In this approach, two weakly complementing fragments of the 3-gal enzyme were expressed within stably transfected Chinese Hamster Ovary (CHO-K1) cells. The complementing fragments of the 3-gal enzyme (ProLink, PK; and Enzyme Acceptor, EA) were translationally fused to the C-terminus of a full-length FXR and to the SRCP, respectively. Complementation was driven by the protein-protein interaction between SRCP-EA and a ProLink-labeled FXR. Upon FXR-SRCP binding, the two fragments of 3-gal complement, forming a functional enzyme capable of hydrolyzing a substrate molecule and generating a chemiluminescent signal.
CHO-K1 cells containing SRCP-EA and ProLink-labeled FXR were plated in 384-well microplates and incubated at 37° C. overnight. A positive control FXR agonist, GW4064 (0-10 micromolar), or test compounds (0-10 micromolar) were added to plated cells and incubated at 37° C. for 6h (final DMSO vehicle concentration was 1%). The assay signal was generated by addition of 50% (v/v) detection reagent (19:5:1, cell assay buffer: substrate reagent 1: substrate reagent 2, DiscoverX) followed by incubation for 1h at ambient room temperature. Microplates were analyzed using an Envision reader (PerkinElmer Life and Analytical Sciences, Signal=chemiluminescence).

Row | SMILES | EC50 [1] | EC50 [2]
1 | O=c1[nH]nc(-c2ccc(N3CCC(OCc4c(-c5c(Cl)cccc5Cl)noc4C4CC4)CC3)cc2F)c(=O)[nH]1 [Example 41, 6-(4-(4-((5-cyclopropyl-3-(2,6-dichlorophenyl)isoxazol-4-yl)methoxy)piperidin-1-yl)-2-fluorophenyl)-1,2,4-triazine-3,5(2H,4H)-dione] | 0.0584 µM | 244 nM
2 | O=c1[nH]c(-c2ccc(N3CCC(OCc4c(-c5c(Cl)cccc5Cl)noc4C4CC4)C3)cc2)no1 (stereo not drawn) [Example 15, 3-(4-(3-((5-cyclopropyl-3-(2,6-dichlorophenyl)isoxazol-4-yl)methoxy)pyrrolidin-1-yl)phenyl)-1,2,4-oxadiazol-5(4H)-one] | 0.892 µM | 5510 nM
3 | O=c1[nH]c(-c2ncc(N3CCC(OCc4c(-c5c(Cl)cccc5Cl)noc4C4CC4)CC3)s2)no1 [Example 56, 3-(5-(4-((5-cyclopropyl-3-(2,6-dichlorophenyl)isoxazol-4-yl)methoxy)piperidin-1-yl)thiazol-2-yl)-1,2,4-oxadiazol-5(4H)-one] | 0.0431 µM | 887 nM
4 | C[C@H]1C[C@H](OCc2c(-c3c(Cl)cccc3Cl)noc2C2CC2)CCN1c1ccc(-c2noc(=O)[nH]2)cc1 [Example 20, 3-(4-((2S,4R)-4-((5-cyclopropyl-3-(2,6-dichlorophenyl)isoxazol-4-yl)methoxy)-2-methylpiperidin-1-yl)phenyl)-1,2,4-oxadiazol-5(4H)-one] | 0.114 µM | 398 nM
5 | O=C(c1noc(=O)[nH]1)N1CCC(OCc2c(-c3c(Cl)cccc3Cl)noc2C2CC2)CC1 [Example 1, 3-(4-((5-cyclopropyl-3-(2,6-dichlorophenyl)isoxazol-4-yl)methoxy)piperidine-1-carbonyl)-1,2,4-oxadiazol-5(4H)-one] | 3.18 µM | 1130 nM
6 | N#Cc1nn(-c2ccc(N3CCC(OCc4c(-c5ccccc5OC(F)(F)F)noc4C4CC4)CC3)cc2)c(=O)[nH]c1=O [Example 85, 2-(4-(4-((5-cyclopropyl-3-(2-(trifluoromethoxy)phenyl)isoxazol-4-yl)methoxy)piperidin-1-yl)phenyl)-3,5-dioxo-2,3,4,5-tetrahydro-1,2,4-triazine-6-carbonitrile] |  | 755 nM
7 | O=c1cn[nH]c(=O)n1-c1ccc(N2CCC(OCc3c(-c4c(Cl)cccc4Cl)noc3C3CC3)CC2)cc1 [Example 62, 4-(4-(4-((5-cyclopropyl-3-(2,6-dichlorophenyl)isoxazol-4-yl)methoxy)piperidin-1-yl)phenyl)-1,2,4-triazine-3,5(2H,4H)-dione] | 6.35 µM and 6.07 µM | > 10000 nM and 4730 nM
8 | N#Cc1n[nH]c(=O)n(-c2ccc(N3CCC(OCc4c(-c5c(Cl)cccc5Cl)noc4C4CC4)CC3)nc2)c1=O [Example 83, 4-(6-(4-((5-cyclopropyl-3-(2,6-dichlorophenyl)isoxazol-4-yl)methoxy)piperidin-1-yl)pyridin-3-yl)-3,5-dioxo-2,3,4,5-tetrahydro-1,2,4-triazine-6-carbonitrile] |  | 5250 nM
9 | O=c1[nH]c(-c2ccc(N3[C@@H]4CC[C@H]3C[C@@H](OCc3c(-c5ccccc5Cl)noc3C3CC3)C4)nc2)no1 [Example 77, 3-(6-((1R,3r,5S)-3-((3-(2-chlorophenyl)-5-cyclopropylisoxazol-4-yl)methoxy)-8-azabicyclo[3.2.1]octan-8-yl)pyridin-3-yl)-1,2,4-oxadiazol-5(4H)-one] |  | 69.5 nM
10 | O=c1[nH]c(-c2ccc(N3CC[C@@H](OCc4c(-c5ccccc5OC(F)(F)F)noc4C4CC4)[C@H](F)C3)cc2)no1 [Example 79, 3-(4-((3R,4R)-4-((5-cyclopropyl-3-(2-(trifluoromethoxy)phenyl)isoxazol-4-yl)methoxy)-3-fluoropiperidin-1-yl)phenyl)-1,2,4-oxadiazol-5(4H)-one] |  | 312 nM
11 | O=c1[nH]c(-c2ccc(N3CC[C@H](OCc4c(-c5ccccc5OC(F)(F)F)noc4C4CC4)[C@@H](F)C3)cc2)no1 [Example 80, 3-(4-((3S,4S)-4-((5-cyclopropyl-3-(2-(trifluoromethoxy)phenyl)isoxazol-4-yl)methoxy)-3-fluoropiperidin-1-yl)phenyl)-1,2,4-oxadiazol-5(4H)-one] |  | 641 nM
12 | O=c1cc(-c2ccc(N3CCC(OCc4c(-c5ccccc5OC(F)(F)F)noc4C4CC4)C(F)(F)C3)cc2)o[nH]1 (stereo not drawn) [Example 84, 5-(4-(4-((5-cyclopropyl-3-(2-(trifluoromethoxy)phenyl)isoxazol-4-yl)methoxy)-3,3-difluoropiperidin-1-yl)phenyl)isoxazol-3(2H)-one] |  | 1530 nM
13 | N#Cc1nn(-c2ccc(N3[C@@H]4CC[C@H]3C[C@@H](OCc3c(-c5ccccc5OC(F)(F)F)noc3C3CC3)C4)cc2)c(=O)[nH]c1=O [Example 89, 2-(4-((1R,3r,5S)-3-((5-cyclopropyl-3-(2-(trifluoromethoxy)phenyl)isoxazol-4-yl)methoxy)-8-azabicyclo[3.2.1]octan-8-yl)phenyl)-3,5-dioxo-2,3,4,5-tetrahydro-1,2,4-triazine-6-carbonitrile] |  | 1000 nM
14 | N#Cc1n[nH]c(=O)n(-c2ccc(N3CCC(OCc4c(-c5ccccc5OC(F)(F)F)noc4C4CC4)CC3)cc2)c1=O [Example 86, 4-(4-(4-((5-cyclopropyl-3-(2-(trifluoromethoxy)phenyl)isoxazol-4-yl)methoxy)piperidin-1-yl)phenyl)-3,5-dioxo-2,3,4,5-tetrahydro-1,2,4-triazine-6-carbonitrile] |  | 22900 nM
15 | O=c1[nH]c(-c2ccc(N3CCC(OCc4c(-c5ccccc5OC(F)(F)F)noc4C4CC4)CC3)nc2)no1 [Example 75, 3-(6-(4-((5-cyclopropyl-3-(2-(trifluoromethoxy)phenyl)isoxazol-4-yl)methoxy)piperidin-1-yl)pyridin-3-yl)-1,2,4-oxadiazol-5(4H)-one] |  | 382 nM
16 | O=c1cc(-c2ccc(N3[C@@H]4CC[C@H]3C[C@@H](OCc3c(-c5ccccc5OC(F)(F)F)noc3C3CC3)C4)cc2)o[nH]1 [Example 81, 5-(4-((1R,3r,5S)-3-((5-cyclopropyl-3-(2-(trifluoromethoxy)phenyl)isoxazol-4-yl)methoxy)-8-azabicyclo[3.2.1]octan-8-yl)phenyl)isoxazol-3(2H)-one] |  | 175 nM
17 | N#Cc1nn(-c2ccc(N3CCC(OCc4c(-c5c(Cl)cccc5Cl)noc4C4CC4)CC3)nc2)c(=O)[nH]c1=O [Example 82, 2-(6-(4-((5-cyclopropyl-3-(2,6-dichlorophenyl)isoxazol-4-yl)methoxy)piperidin-1-yl)pyridin-3-yl)-3,5-dioxo-2,3,4,5-tetrahydro-1,2,4-triazine-6-carbonitrile] |  | 1830 nM
18 | C[C@@H]1C[C@H](OCc2c(-c3ccccc3OC(F)(F)F)noc2C2CC2)CCN1c1ccc(-c2noc(=O)[nH]2)cn1 [Example 76, 3-(6-((2R,4R)-4-((5-cyclopropyl-3-(2-(trifluoromethoxy)phenyl)isoxazol-4-yl)methoxy)-2-methylpiperidin-1-yl)pyridin-3-yl)-1,2,4-oxadiazol-5(4H)-one] |  | 196 nM
19 | O=c1cnn(-c2ccc(N3[C@@H]4CC[C@H]3C[C@@H](OCc3c(-c5ccccc5OC(F)(F)F)noc3C3CC3)C4)cc2)c(=O)[nH]1 [Example 88, 2-(4-((1R,3r,5S)-3-((5-cyclopropyl-3-(2-(trifluoromethoxy)phenyl)isoxazol-4-yl)methoxy)-8-azabicyclo[3.2.1]octan-8-yl)phenyl)-1,2,4-triazine-3,5(2H,4H)-dione] |  | 460 nM
20 | O=c1cc(-c2ccc(N3CCC(OCc4c(-c5c(Cl)cccc5Cl)noc4C4CC4)C(F)(F)C3)cc2)o[nH]1 (stereo not drawn) [Example 87, 5-(4-(4-((5-cyclopropyl-3-(2,6-dichlorophenyl)isoxazol-4-yl)methoxy)-3,3-difluoropiperidin-1-yl)phenyl)isoxazol-3(2H)-one] |  | 261 nM
21 | O=c1[nH]c(-c2ccc(N3[C@@H]4CC[C@H]3C[C@@H](OCc3c(-c5c(F)cccc5F)noc3C3CC3)C4)nc2)no1 [Example 78, 3-(6-((1R,3r,5S)-3-((5-cyclopropyl-3-(2,6-difluorophenyl)isoxazol-4-yl)methoxy)-8-azabicyclo[3.2.1]octan-8-yl)pyridin-3-yl)-1,2,4-oxadiazol-5(4H)-one] |  | 154 nM
